Values quoted from earlier work as cited in PubChem BioAssay AID1259409 (Chemical Carcinogenesis Research Information System (CCRIS), 2018).

Test system: rodent chemically induced tumor inhibition, incidence and multiplicity
Assay: CCRIS tumor inhibitor studies
Details: Carcinogen: 7,12-DIMETHYLBENZ[A]ANTHRACENE, 57-97-6, Dose [Inhibitor]: 0, Route [Inhibitor]: ORAL, Species: FISH, FEMALE, Promoter: NONE USED

O=c1oc2c(O)c(O)cc3c(=O)oc4c(O)c(O)cc1c4c23
tumour outcome (control, treated, inhibition, significance) (1000 PPM IN DIET FOR 17 WK BEGINNING POST CARCINOGEN TREATMENT (STUDY DURATION: 42 WK), Strain/Sex: RAINBOW TROUT/ MALE, Target Tissue: Type of Lesion: SWIM BLADDER: TUMOR, Dose [Carcinogen]: 5.5 PPM IN WATER FOR 1 HR): 15%, 6%, 60%, p<0.05
tumour outcome (control, treated, inhibition, significance) (1000 PPM IN DIET FOR 17 WK BEGINNING POST CARCINOGEN TREATMENT (STUDY DURATION: 42 WK), Strain/Sex: RAINBOW TROUT/MALE, Target Tissue: Type of Lesion: LIVER: TUMOR, Dose [Carcinogen]: 5.5 PPM IN WATER FOR 1 HR): 5%, 11%, -120%, p<0.05
tumour outcome (control, treated, inhibition, significance) (1000 PPM IN DIET FOR DURATION OF STUDY BEGINNING CONCURRENTLY WITH CARCINOGEN TREATMENT (STUDY DURATION: 42 WK), Strain/Sex: RAINBOW TROUT/ MALE, Target Tissue: Type of Lesion: STOMACH: TUMOR, Dose [Carcinogen]: 750 PPM IN DIET FOR 7 WK): 85%, 78%, 8%, p<0.05
tumour outcome (control, treated, inhibition, significance) (1000 PPM IN DIET FOR DURATION OF STUDY BEGINNING CONCURRENTLY WITH CARCINOGEN TREATMENT (STUDY DURATION: 42 WK), Strain/Sex: RAINBOW TROUT/ MALE, Target Tissue: Type of Lesion: SWIM BLADDER: TUMOR, Dose [Carcinogen]: 750 PPM IN DIET FOR 7 WK): 1%, 1%, 0%, not significant
tumour outcome (control, treated, inhibition, significance) (1000 PPM IN DIET FROM 3 WK PRIOR TO CARCINOGEN TREATMENT TO 3 D POST CARCINOGEN TREATMENT (STUDY DURATION: 42 WK), Strain/Sex: RAINBOW TROUT/MALE, Target Tissue: Type of Lesion: LIVER: TUMOR, Dose [Carcinogen]: 4.16 PPM IN WATER FOR 1 HR): 7%, 16%, -129%, p<0.001
tumour outcome (control, treated, inhibition, significance) (1000 PPM IN DIET FROM 3 WK PRIOR TO CARCINOGEN TREATMENT TO 3D POST CARCINOGEN TREATMENT (STUDY DURATION: 42 WK), Strain/Sex: RAINBOW TROUT/MALE, Target Tissue: Type of Lesion: STOMACH: TUMOR, Dose [Carcinogen]: 4.16 PPM IN WATER FOR 1 HR): 97%, 92%, 5%, not significant
tumour outcome (control, treated, inhibition, significance) (1000 PPM IN DIET FROM 3 WK PRIOR TO CARCINOGEN TREATMENT TO 3 D POST CARCINOGEN TREATMENT (STUDY DURATION: 42 WK), Strain/Sex: RAINBOW TROUT/MALE, Target Tissue: Type of Lesion: SWIM BLADDER: TUMOR, Dose [Carcinogen]: 4.16 PPM IN WATER FOR 1 HR): 14%, 50%, -257%, p<0.001
tumour outcome (control, treated, inhibition, significance) (2000 PPM IN DIET FOR 17 WK BEGINNING POST CARCINOGEN TREATMENT (STUDY DURATION: 42 WK), Strain/Sex: RAINBOW TROUT/ MALE, Target Tissue: Type of Lesion: STOMACH: TUMOR, Dose [Carcinogen]: 5.5 PPM IN WATER FOR 1 HR): 88%, 19%, 78%, p<0.001
tumour outcome (control, treated, inhibition, significance) (2000 PPM IN DIET FOR 17 WK BEGINNING POST CARCINOGEN TREATMENT (STUDY DURATION: 42 WK), Strain/Sex: RAINBOW TROUT/ MALE, Target Tissue: Type of Lesion: SWIM BLADDER: TUMOR, Dose [Carcinogen]: 5.5 PPM IN WATER FOR 1 HR): 15%, 6%, 60%, p<0.05
tumour outcome (control, treated, inhibition, significance) (2000 PPM IN DIET FOR 17 WK BEGINNING POST CARCINOGEN TREATMENT (STUDY DURATION: 42 WK), Strain/Sex: RAINBOW TROUT/MALE, Target Tissue: Type of Lesion: LIVER: TUMOR, Dose [Carcinogen]: 5.5 PPM IN WATER FOR 1 HR): 5%, 10%, -100%, p<0.05
tumour outcome (control, treated, inhibition, significance) (2000 PPM IN DIET FROM 1 WK PRIOR TO CARCINOGEN TREATMENT TO 3 D POST CARCINOGEN (STUDY DURATION: 42 WK), Strain/Sex: RAINBOW TROUT/ MALE, Target Tissue: Type of Lesion: SWIM-BLADDER: TUMOR, Dose [Carcinogen]: 5.5 PPM IN WATER FOR 1 HR): 15%, 7%, 53%, p<0.05
tumour outcome (control, treated, inhibition, significance) (2000 PPM IN DIET FROM 1 WK PRIOR TO CARCINOGEN TREATMENT TO 3 D POST CARCINOGEN TREATMENT (STUDY DURATION: 42 WK), Strain/Sex: RAINBOW TROUT/ MALE, Target Tissue: Type of Lesion: LIVER: TUMOR, Dose [Carcinogen]: 5.5 PPM IN WATER FOR 1 HR): 5%, 3%, 40%, not significant
